Measured values taken from the supplement of paper PMC6045584.
± gives the standard deviation of the averaged measurements.

How the values were obtained:
[1] = compound: COc1cc2ncnc(Nc3ccc(F)c(Cl)c3)c2cc1NC(=O)/C=C/CN1CCCCC1; experiment: surviving fraction relative to DMSO-only wells; higher = less growth inhibition; conditions: exposure time: 5 days
Procedure, shortened: (§1)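 A line counted only if its three screens reached replicate Pearson r >0.7 and median Z' >0.3. Tumour cells in log phase were seeded at 250–500 per well in 384-well plates and, after 24 hours, kept in continuous contact with inhibitors at 0.5, 1, 5, 10, 50, 100, 500 and 1000 nM for five days. Surviving fraction was taken from CellTiter-Glo luminescence relative to the median of DMSO-only wells.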

DASATINIB = compound: Cc1nc(Nc2ncc(C(=O)Nc3c(C)cccc3Cl)s2)cc(N2CCN(CCO)CC2)n1 [DASATINIB]; experiment: as above; conditions: exposure time: 5 days
Procedure, shortened: as §1

Test System | surviving fraction ([1]; 0.5 nM) | surviving fraction ([1]; 1 nM) | surviving fraction ([1]; 5 nM) | surviving fraction ([1]; 10 nM) | surviving fraction ([1]; 50 nM) | surviving fraction ([1]; 100 nM) | surviving fraction ([1]; 500 nM) | surviving fraction ([1]; 1000 nM) | surviving fraction (DASATINIB; 0.5 nM) | surviving fraction (DASATINIB; 1 nM) | surviving fraction (DASATINIB; 5 nM) | surviving fraction (DASATINIB; 10 nM) | surviving fraction (DASATINIB; 50 nM) | surviving fraction (DASATINIB; 100 nM) | surviving fraction (DASATINIB; 500 nM) | surviving fraction (DASATINIB; 1000 nM)
HCC1395 BREAST | 0.92 ± 0.09 | 0.93 ± 0.037 | 1.08 ± 0.099 | 1.03 ± 0.036 | 1.05 ± 0.16 | 1.01 ± 0.21 | 0.896 ± 0.14 | 0.809 ± 0.15 | 0.813 ± 0.065 | 0.961 ± 0.1 | 0.891 ± 0.068 | 0.902 ± 0.044 | 0.763 ± 0.093 | 0.704 ± 0.091 | 0.583 ± 0.067 | 0.591 ± 0.017
HCC1806 BREAST | 1.11 ± 0.16 | 1.05 ± 0.11 | 1 ± 0.083 | 0.79 ± 0.046 | 0.663 ± 0.087 | 0.573 ± 0.014 | 0.458 ± 0.052 | 0.322 ± 0.022 | 0.682 ± 0.085 | 0.639 ± 0.021 | 0.71 ± 0.059 | 0.639 ± 0.075 | 0.446 ± 0.017 | 0.219 ± 0.038 | 0.167 ± 0.015 | 0.149 ± 0.021
HCC1954 BREAST | 1.11 ± 0.075 | 0.808 ± 0.064 | 0.756 ± 0.028 | 0.722 ± 0.084 | 0.508 ± 0.0074 | 0.471 ± 0.0092 | 0.283 ± 0.013 | 0.155 ± 0.018 | 0.362 ± 0.011 | 0.325 ± 0.035 | 0.282 ± 0.0039 | 0.351 ± 0.006 | 0.309 ± 0.022 | 0.173 ± 0.021 | 0.148 ± 0.0028 | 0.104 ± 0.019
HCT15 LARGE INTESTINE | 1.03 ± 0.044 | 1.09 ± 0.06 | 1.05 ± 0.043 | 1.06 ± 0.069 | 1.02 ± 0.033 | 1.06 ± 0.031 | 1.03 ± 0.088 | 0.821 ± 0.057 | 0.827 ± 0.034 | 0.814 ± 0.04 | 0.789 ± 0.06 | 0.73 ± 0.094 | 0.702 ± 0.044 | 0.56 ± 0.034 | 0.363 ± 0.083 | 0.326 ± 0.046
HELA CERVIX | 1.07 ± 0.055 | 1.07 ± 0.051 | 1 ± 0.076 | 1.04 ± 0.023 | 1.18 ± 0.038 | 1.17 ± 0.025 | 1.19 ± 0.072 | 1.13 ± 0.071 | 0.937 ± 0.085 | 0.934 ± 0.057 | 0.948 ± 0.037 | 0.909 ± 0.029 | 1.02 ± 0.029 | 1.04 ± 0.011 | 1.04 ± 0.061 | 1.06 ± 0.037
HOS BONE | 1.017 ± 0.0078 | 1 ± 0.018 | 1.02 ± 0.017 | 1.02 ± 0.015 | 1.05 ± 0.019 | 1.04 ± 0.023 | 0.951 ± 0.057 | 0.888 ± 0.032 | 0.906 ± 0.018 | 0.908 ± 0.022 | 0.821 ± 0.015 | 0.763 ± 0.048 | 0.693 ± 0.0078 | 0.604 ± 0.015 | 0.382 ± 0.035 | 0.358 ± 0.014
HOSMNG BONE | 0.909 ± 0.07 | 0.924 ± 0.11 | 0.958 ± 0.063 | 0.917 ± 0.086 | 1.033 ± 0.0083 | 1.02 ± 0.046 | 0.97 ± 0.1 | 0.953 ± 0.017 | 0.979 ± 0.032 | 0.971 ± 0.05 | 0.868 ± 0.021 | 0.741 ± 0.027 | 0.603 ± 0.021 | 0.457 ± 0.016 | 0.36 ± 0.019 | 0.372 ± 0.0076
HSSYII SYNOVIAL | 0.98 ± 0.031 | 0.942 ± 0.038 | 0.966 ± 0.054 | 0.942 ± 0.03 | 0.928 ± 0.059 | 0.927 ± 0.045 | 0.715 ± 0.041 | 0.495 ± 0.0068 | 0.781 ± 0.031 | 0.791 ± 0.034 | 0.765 ± 0.029 | 0.743 ± 0.022 | 0.634 ± 0.0095 | 0.531 ± 0.047 | 0.489 ± 0.056 | 0.501 ± 0.037
HT1080 SOFT TISSUE | 1.02 ± 0.015 | 1.01 ± 0.023 | 0.964 ± 0.0098 | 0.984 ± 0.026 | 1.03 ± 0.015 | 0.981 ± 0.034 | 0.9 ± 0.04 | 0.751 ± 0.045 | 0.975 ± 0.032 | 0.947 ± 0.043 | 0.918 ± 0.02 | 0.841 ± 0.046 | 0.61 ± 0.017 | 0.541 ± 0.017 | 0.428 ± 0.023 | 0.427 ± 0.01
HU09 BONE | 1.09 ± 0.03 | 0.996 ± 0.062 | 1.14 ± 0.028 | 1.11 ± 0.12 | 1.15 ± 0.019 | 1.01 ± 0.12 | 0.635 ± 0.0066 | 0.432 ± 0.026 | 0.863 ± 0.056 | 0.845 ± 0.025 | 0.805 ± 0.086 | 0.75 ± 0.056 | 0.392 ± 0.051 | 0.214 ± 0.019 | 0.129 ± 0.007 | 0.12 ± 0.018
HUO3N1 BONE | 1.03 ± 0.037 | 0.983 ± 0.057 | 1.06 ± 0.065 | 1 ± 0.016 | 1.07 ± 0.073 | 1.03 ± 0.059 | 0.789 ± 0.018 | 0.629 ± 0.032 | 0.8227 ± 0.0049 | 0.747 ± 0.029 | 0.568 ± 0.083 | 0.457 ± 0.032 | 0.331 ± 0.0068 | 0.2553 ± 0.0021 | 0.232 ± 0.013 | 0.215 ± 0.0027
JIMT1 BREAST | 1 ± 0.044 | 0.989 ± 0.031 | 0.91883 ± 0.00029 | 0.862 ± 0.012 | 0.653 ± 0.013 | 0.667 ± 0.016 | 0.545 ± 0.019 | 0.362 ± 0.025 | 0.859 ± 0.034 | 0.844 ± 0.033 | 0.802 ± 0.034 | 0.68 ± 0.024 | 0.394 ± 0.041 | 0.182 ± 0.018 | 0.0683 ± 0.012 | 0.0518 ± 0.0019
JURKAT HAEMATOPOIETIC AND LYMPHOID TISSUE | 1.08 ± 0.037 | 1.06 ± 0.029 | 1.06 ± 0.043 | 1.02 ± 0.017 | 1.03 ± 0.026 | 1.04 ± 0.034 | 0.881 ± 0.056 | 0.297 ± 0.025 | 1.033 ± 0.0046 | 0.984 ± 0.034 | 0.927 ± 0.011 | 0.892 ± 0.011 | 0.886 ± 0.043 | 0.785 ± 0.024 | 0.614 ± 0.028 | 0.432 ± 0.016
KPD BONE | 1.03 ± 0.068 | 1.05 ± 0.04 | 1.04 ± 0.037 | 1.04 ± 0.015 | 1.05 ± 0.079 | 1.04 ± 0.019 | 0.718 ± 0.034 | 0.493 ± 0.025 | 0.909 ± 0.063 | 0.851 ± 0.053 | 0.781 ± 0.044 | 0.73 ± 0.0072 | 0.579 ± 0.039 | 0.481 ± 0.03 | 0.39 ± 0.016 | 0.336 ± 0.025
LM7 BONE | 0.93 ± 0.059 | 0.998 ± 0.078 | 0.983 ± 0.063 | 1.06 ± 0.094 | 1.01 ± 0.011 | 0.957 ± 0.055 | 0.532 ± 0.063 | 0.287 ± 0.006 | 0.732 ± 0.032 | 0.694 ± 0.031 | 0.616 ± 0.044 | 0.576 ± 0.028 | 0.443 ± 0.036 | 0.338 ± 0.014 | 0.206 ± 0.031 | 0.211 ± 0.008
LNCAP PROSTATE | 0.807 ± 0.074 | 0.828 ± 0.13 | 0.858 ± 0.19 | 0.888 ± 0.16 | 0.95 ± 0.043 | 1.02 ± 0.048 | 0.896 ± 0.097 | 0.797 ± 0.12 | 1.14 ± 0.05 | 1.1 ± 0.082 | 1.03 ± 0.075 | 0.941 ± 0.12 | 0.678 ± 0.032 | 0.504 ± 0.053 | 0.572 ± 0.012 | 0.589 ± 0.076
MCF7 BREAST | 0.908 ± 0.061 | 0.938 ± 0.022 | 0.922 ± 0.08 | 0.971 ± 0.096 | 1.01 ± 0.043 | 0.966 ± 0.034 | 1.01 ± 0.012 | 0.927 ± 0.07 | 0.803 ± 0.048 | 0.798 ± 0.043 | 0.816 ± 0.035 | 0.795 ± 0.019 | 0.787 ± 0.051 | 0.741 ± 0.048 | 0.741 ± 0.028 | 0.739 ± 0.037
MDAMB134 BREAST | 0.947 ± 0.17 | 1.07 ± 0.061 | 0.944 ± 0.014 | 0.981 ± 0.14 | 1.05 ± 0.28 | 1.02 ± 0.21 | 0.795 ± 0.012 | 0.732 ± 0.013 | 0.71 ± 0.023 | 0.687 ± 0.0057 | 0.531 ± 0.013 | 0.534 ± 0.096 | 0.704 ± 0.018 | 0.6445 ± 0.0035 | 0.635 ± 0.019 | 0.606 ± 0.0064
MDAMB157 BREAST | 0.951 ± 0.025 | 0.894 ± 0.018 | 1 ± 0.046 | 0.964 ± 0.056 | 0.95 ± 0.094 | 0.864 ± 0.051 | 0.887 ± 0.1 | 0.63 ± 0.095 | 0.954 ± 0.12 | 0.915 ± 0.021 | 0.775 ± 0.071 | 0.688 ± 0.074 | 0.438 ± 0.025 | 0.35 ± 0.031 | 0.238 ± 0.04 | 0.232 ± 0.038
MDAMB231 BREAST | 1.03 ± 0.024 | 1.02 ± 0.024 | 1.05 ± 0.019 | 1.047 ± 0.01 | 1.02 ± 0.035 | 1 ± 0.024 | 0.692 ± 0.022 | 0.488 ± 0.039 | 0.803 ± 0.011 | 0.794 ± 0.033 | 0.653 ± 0.022 | 0.571 ± 0.02 | 0.25 ± 0.0064 | 0.171 ± 0.0089 | 0.1411 ± 0.0013 | 0.153 ± 0.0031
MDAMB361 BREAST | 0.896 ± 0.049 | 0.909 ± 0.035 | 0.922 ± 0.052 | 0.833 ± 0.03 | 0.738 ± 0.017 | 0.745 ± 0.055 | 0.586 ± 0.019 | 0.543 ± 0.046 | 0.678 ± 0.12 | 0.733 ± 0.081 | 0.668 ± 0.087 | 0.711 ± 0.16 | 0.799 ± 0.058 | 0.781 ± 0.039 | 0.75 ± 0.077 | 0.821 ± 0.13
